No end group written: not given here.
Key:
[1] = tested on: E. chaffeensis antibodies in HME patient sera; assay: ELISA evaluation of E. chaffeensis immunodeterminants for serologic diagnosis of HME; type: binding, human
Experimental: ELISA. For epitope mapping, an ELISA was performed as previously described (Luo et al., 2009). For serologic diagnosis evaluation, an Immobilizer amino plate (Nunc, Roskilde, Denmark) was used to increase the signal-to-noise ratio. Immobilizer amino plates were coated with synthetic peptides or recombinant proteins (0.5 μg/well; 50 μl) suspended in 100 mM sodium carbonate buffer (pH 9.6) and incubated with gentle agitation at room temperature for 1 to 2 h or overnight at 4° C. The wells were washed four times with 300 μl phosphatebuffered saline containing 0.05% (vol/vol) Tween 20 (PBST; pH 7.2) by a plate washer (SkanWasher 400; Molecular Devices, Sunnyvale, Calif.). Dog or human sera diluted (1:100 or 1:200, respectively) in PBST were added to each well (50 μl) and incubated at room temperature for 1 h. The plates were washed again, and 50 μl alkaline phosphatase-labeled goat anti-dog or -human IgG(H+L) secondary antibody (Kirkegaard & Perry Laboratories, Gaithersburg, Md.) diluted (1:5,000) in PBST was added and incubated at room temperature for 1 h. After the addition of substrate (BluePhos; Kirkegaard & Perry Laboratories), plates were incubated in the dark for 30 min, color development was determined on a microplate reader (VersaMax; Molecular Devices, Sunnyvale, Calif.) at A650, and data were analyzed by SoftMax Pro version 4.0 (Molecular Devices). Optical density (OD) readings represent the mean OD value for three wells (±standard deviations) after subtracting the OD value of the negative control wells. All sera negative for E. chaffeensis by IFA had readings of <0.05 OD unit; therefore, a positive sample threshold was set at >0.1 OD unit. In addition, a reading of 0.1 to 0.5 OD unit was considered a weak positive, and a reading of >0.5 OD unit was considered a strong positive. IFA. The anti-E. chaffeensis antibody status in HME patient sera was determined as described previously (McBride et al., 2003). […] The statistical differences between experimental groups were assessed with the two-tailed Student t test, and significance was indicated by a P value of <0.05. […]

[2] = tested on: antibodies in anti-E. canis dog sera; assay: ELISA of overlapping synthetic peptides spanning the E. canis p140 repeat unit; type: binding; conditions: four anti-E. canis sera from naturally infected dogs (nos. 2160, 6, 10, 18)
Experimental: ELISA. Enzyme-linked immunosorbent assay (ELISA) plates (MaxiSorp; Nunc, Roskilde, Denmark) were coated (0.5 μg/well; 50 μl) with recombinant proteins or synthetic peptides suspended in phosphate-buffered saline (pH 7.4). Proteins and peptides were absorbed for 1 h at room temperature with gentle agitation, and subsequently washed thrice with 200 μl Tris-buffered saline containing 0.2% Tween 20 (TBST). Plates were blocked with 100 μl 10% equine serum (Sigma) in TBST for 1 h at room temperature with agitation, and washed. Convalescent dog or human sera diluted (1:100 or 1:200, respectively) in 10% equine serum-TBST were added to each well (50 μl) and incubated at room temperature for 1 h with gentle agitation. […] The plates were incubated in the dark for 30 min with agitation, and color development was determined on a microplate reader (VersaMax; Molecular Devices, Sunnyvale, Calif.) at A650 and data analyzed by SoftmaxPro v4.0 (Molecular Devices). Optical density (OD) readings represent the mean OD for three wells (±standard deviations) after subtracting the OD value of the buffer-only wells. A reading >0.2 OD unit above the negative control absorbance was considered positive for all samples. In addition, a reading 0.2-0.5 OD unit above the control absorbance was considered a weak positive, and a reading >0.5 OD unit above the control absorbance was considered a strong positive. […]

[3] = 31 HME patient sera (IFA titers 64 to 8192), positive = 0.1 OD unit above negative control

Substance	% of patients with detectable antibodies [1, 3] [%]	No. of patients with detectable antibodies [1, 3]	specificity for diagnosing HME ([1]; as worded in the summary) [%]	Immunoreactivity by ELISA [2]
TRP32 peptides: equal (w:w) mixture of TRP32-R3 and TRP32-R4 peptides (chain 1 SDLHGSFSVELFDPFKEAVQLGNDLQQSSD; chain 2 SDSHEPSHLELPSLSEEVIQLESDLQQSSN; not fully specified)	87.1	27	87.1	–
p140R-3: 11-mer overlapping synthetic peptide of the E. canis p140 repeat unit (SKEESTPEVKA)	–	–	–	virtually nonreactive
